According to patent US10202411B2, “3′-substituted methyl or alkynyl nucleosides nucleotides for the treatment of HCV” (priority 2014, dated 2019):

Tests used:
HCV genotype 1b replicon = test: HCV replicon assay (Zluc luciferase reporter); format: cell-based; details: Hepatitis C virus, 72 h, read-out: HCV Replicon EC50
Description: Huh-7-derived cell line (Zluc) that harbors an HCV genotype 1b replicon and a luciferase reporter gene was grown in Dulbecco's Modified Eagle Medium (DMEM) supplemented with 10% fetal bovine serum, 2 mM GlutaMAX, 1% MEM nonessential amino acids, 100 IU/mL penicillin, 100 μg/mL streptomycin, and 0.5 mg/mL Geneticin® (G418). For dose response testing the cells were seeded in 96-well plates at 7.5×10^3 cells per well in a volume of 50 μL, and incubated at 37° C./5% CO2. Drug solutions were made up freshly in Huh-7 media as 2× stocks. Ten additional 5-fold dilutions were prepared from these stocks in DMEM without G418. At least three hours after Zluc cells were seeded, drug treatment was initiated by adding 50 μL of drug dilutions to the plates in duplicate. Final concentrations of drug ranged from 100 μM to 0.0000512 μM. Cells were then incubated at 37° C./5% CO2. Alternatively, compounds were tested at two concentrations (1 μM and 10 μM). […] After 72 hours of incubation, the inhibition of HCV replication was measured by quantification of photons emitted after mono-oxygenation of 5′-fluoroluciferin to oxyfluoroluciferin by firefly luciferase. For this, media was removed from the plates via gentle tapping. Fifty microliters of ONE-glo luciferase assay reagent was added to each well. The plates were shaken gently for 3 min at room temperature and luminescence was measured on a Victor^3 V 1420 multilabel counter (Perkin Elmer) with a 1 second read time using a 700 nm cut-off filter. The EC50 values were calculated from dose response curves from the resulting best-fit equations determined by Microsoft Excel and XLfit 4.1 software. When screening at two fixed concentrations, the results were expressed as % inhibition at 1 μM and 10 μM.

[1] = Cytotoxicity evaluation, CellTiter-Blue Cell Viability Assay; details: human

Compound: CC(C)OC(=O)[C@@H](C)NP(=S)(OC[C@H]1O[C@@H](n2ccc(=O)[nH]c2=O)[C@H](O)[C@@H]1CO)Oc1ccccc1 (single isomer, unassigned) [Compound 122a Diastereomer 1]
- EC50 (HCV genotype 1b replicon): > 10 µM
- CC50 at 72 h [1]: > 50 µM
